Assay results reported in patent US20110098309A1, “METHODS OF INHIBITING THE FORMATION OF AMYLOID-BETA DIFFUSABLE LIGANDS USING ACYLHYDRAZIDE COMPOUNDS” (priority 2007, published 2011).
“And” between values parts separate entries of the source, which are not always exact repeats. Identical values can stand only once.

Columns and labels:
Aβ1-42 = Aβ1-42 (Homo sapiens, UniProt P05067); experiment: FRET assay of Aβ1-42 oligomer (ADDL) assembly inhibition; format: biochemical; settings: 0.2 μM FITC-Aβ(1-42) and 0.8 μM Aβ(1-42), 37° C., six concentrations from about 10 μM to about 0.03 μM
In short: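 Fluorescein-quenching FRET read with 0.2 μM FITC-Aβ(1-42) plus 0.8 μM Aβ(1-42) in 25 mM MOPS-Tris pH 8.0, 100 mM MgCl2, 37° C. Compound tested at six concentrations from about 10 μM down to about 0.03 μM. Fluorescence read every five minutes over about three hours; inhibition seen as absent or attenuated quenching.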

Aβ1-42 ADDLs = molecular target: T1, Aβ1-42 ADDLs (Homo sapiens, UniProt P05067); experiment: Alternating Lever Cyclic Ratio (ALCR) rat model; format: in vivo; settings: for Approach Errors / Perseveration Errors: injection via cannula into lateral ventricle, compared to baseline error rates
T1 construct: Synthetic Aβ1-42 powder was dissolved in 1,1,1,3,3,3-hexafluorisopropanol (HFIP)
Protocol: Preparations of Aβ1-42 ADDLs and a potential therapeutic compound under the Alternating Lever Cyclic Ratio (ALCR) rat model of AD were tested to show in vivo efficacy. This highly sensitive model has been able to detect cognitive deficits due to direct injection of cell-derived Aβ oligomers into rat brain. Using this technique, a direct injection of ADDLs made from synthetic Aβ1-42 and a putative therapeutic compound under the ALCR procedure were tested.
In this task, rats learned a complex sequence of lever-pressing requirements in order to earn food reinforcement in a two-lever experimental chamber. Subjects alternated between two levers by switching to the other lever after pressing the first lever enough to get food reward. The exact number of presses required for each food reward changed, first increasing from 2 responses per food pellet up to 56 presses per food pellet, then decreasing back to 2 responses per pellet. Intermediate values were based on the quadratic function, x^2−x. One cycle was an entire ascending and descending sequence of these lever press requirements (e.g., 2, 6, 12, 20, 30, 42, 56, 56, 42, 30, 20, 12, 6, and 2 presses per food reward). Six such full cycles were presented during each daily session.
Synthetic Aβ1-42 powder was dissolved in 1,1,1,3,3,3-hexafluorisopropanol (HFIP) to afford a solution of Aβ1-42 in HFIP of about 1 mM and allowed to incubate at ambient temperature for about 1 h. The resulting solution was chilled on ice for about 5-10 min, then aliquoted into eppendorf tubes to provide about 50 μL of solution per tube. The tubes were then placed in a chemical fume hood and allowed to stand overnight to allow the HFIP to evaporate under a slow stream of nitrogen. To remove final traces of HFIP, the tubes were subjected to two SpeedVac cycles of 15 min at room temperature and about 15 to 25 mm Hg of vacuum. The resulting films of monomerized Aβ1-42 peptide were stored over desiccant at −80° C. until used.
A tube of monomerized Aβ1-42 peptide was warmed to room temperature and the Aβ1-42 peptide was dissolved in anhydrous DMSO to afford a peptide stock DMSO solution containing about 10 μM to about 100 μM Aβ1-42 peptide in DMSO.
The concentration of the test compound is listed below in Table 3.
For the Aβ1-42 peptide only treatment, peptide stock DMSO solution was added to 37° C. neural basal to obtain the requisite Aβ1-42 peptide monomer concentration, provided that the maximum concentration of DMSO is 1% or less, and the tube was vortexed for 30 to 60 seconds, spun down briefly in a microfuge and incubated at 37° C. for 15 min prior to the start of injections.
For the Aβ1-42 peptide plus test compound treatment, peptide stock DMSO solution was added to 37° C. compound neural basal media solution to obtain the requisite Aβ1-42 peptide monomer concentration, provided that the maximum concentration of DMSO is 1% or less, and the tube was vortexed for 30 to 36 seconds, spun down briefly in a microfuge and incubated at 37° C. for 15 min prior to the start of injections.
For control injections, compound neural basal media solution was incubated at 37° C. for 15 min prior to the start of injections.
Rats: Rats are trained under ALCR until their error rates are stable. Once the rats are placed upon the final ALCR procedure, training sessions are conducted 7 days each week until the end of the study.
Surgery: All rats received a single 28 gauge cannula, which was permanently affixed to the skull, and aimed at the lateral ventricle. Half of the rats received cannula in the right ventricle and half receive cannula in the left ventricle. Rats were allowed 5 days to recover from surgery before training resumed.
Injection of Test Material and ALCR Testing: Test were conducted about every fourth day. Animals received a 10-20 μL injection of control, peptide, or peptide plus compound solutions via the implanted cannula over about 3 to 4 minutes. Animals were tested about 3 hours following injection. […]

[1] = 1 nM ADDLs + 2 μM compound, rats tested about 3 hours after injection
[2] = 2 μM compound alone (no ADDLs), rats
[3] = ADDLs injected along with compound, rats
[4] = 27 nM Aβ1-42 monomer alone, rats

T1 sequence (P05067 672-713 limits assumed): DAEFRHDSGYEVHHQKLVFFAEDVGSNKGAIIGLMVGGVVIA
Chain of Aβ1-42 (P05067 672-713 limits assumed): as above

IC50 (Aβ1-42) [µM]	Approach Errors (Aβ1-42 ADDLs; [1])	Perseveration Errors (Aβ1-42 ADDLs; [1])	Approach Errors (Aβ1-42 ADDLs; [2]) [%]	Perseveration Errors (Aβ1-42 ADDLs; [2]) [%]	Perseveration error (in words) (Aβ1-42 ADDLs; [3])	Approach Errors (Aβ1-42 ADDLs; [4]) [%]	Perseveration Errors (Aβ1-42 ADDLs; [4]) [%]	Compound	Approach Errors (Aβ1-42 ADDLs; 1 nM ADDLs alone, rats)	Perseveration Errors (Aβ1-42 ADDLs; 1 nM ADDLs alone, rats)	Perseveration error (in words) (Aβ1-42 ADDLs; ADDLs compared to vehicle or Aβ1-42 monomer alone, rats)
4.5	115%	105%	92	85	decreased significantly	–	–	O=C(C/C(=N/NC(=O)c1ccccc1O)C(F)(F)F)c1cccs1 [Compound 2, 2-hydroxy-N′-(1,1,1-trifluoro-4-oxo-4-(thiophen-2-yl)butan-2-ylidene)benzohydrazide]	–	–	–
–	100% and 111%	92% and 107%	101	112	decreased significantly	–	–	O=C(N/N=C/c1c(O)ccc2ccccc12)c1ccccc1O [Compound 89, 2-hydroxy-N′-((2-hydroxy-naphthalen-1-yl)methylene)benzohydrazide]	–	–	–
–	–	–	–	–	–	–	–	ADDLs: amyloid beta-derived diffusable ligands: soluble, oligomeric, globular, non-fibrillar, neurotoxic Aβ1-42 peptides, made from synthetic Aβ1-42 [reference compound]	102% and 142%	133% and 127%	increased the Perseveration error
–	–	–	–	–	–	105	117	Aβ1-42 Monomer: monomerized synthetic Aβ1-42 peptide [reference compound]	–	–	–
